Data on 2 compounds can be found in patent publication US20240190851A1, “FURAN FUSED RING-SUBSTITUTED GLUTARIMIDE COMPOUND” (MEDSHINE DISCOVERY INC., priority 2021, published 2024).

The test has as its target T1, androgen receptor AR (Homo sapiens, UniProt P10275, T878A).
T1 construct: degradation effect of compounds on androgen receptor AR in LNCaP cells; endogenous in cells; host or cells: LNCaP
T1 sequence (P10275 1-920 T878A): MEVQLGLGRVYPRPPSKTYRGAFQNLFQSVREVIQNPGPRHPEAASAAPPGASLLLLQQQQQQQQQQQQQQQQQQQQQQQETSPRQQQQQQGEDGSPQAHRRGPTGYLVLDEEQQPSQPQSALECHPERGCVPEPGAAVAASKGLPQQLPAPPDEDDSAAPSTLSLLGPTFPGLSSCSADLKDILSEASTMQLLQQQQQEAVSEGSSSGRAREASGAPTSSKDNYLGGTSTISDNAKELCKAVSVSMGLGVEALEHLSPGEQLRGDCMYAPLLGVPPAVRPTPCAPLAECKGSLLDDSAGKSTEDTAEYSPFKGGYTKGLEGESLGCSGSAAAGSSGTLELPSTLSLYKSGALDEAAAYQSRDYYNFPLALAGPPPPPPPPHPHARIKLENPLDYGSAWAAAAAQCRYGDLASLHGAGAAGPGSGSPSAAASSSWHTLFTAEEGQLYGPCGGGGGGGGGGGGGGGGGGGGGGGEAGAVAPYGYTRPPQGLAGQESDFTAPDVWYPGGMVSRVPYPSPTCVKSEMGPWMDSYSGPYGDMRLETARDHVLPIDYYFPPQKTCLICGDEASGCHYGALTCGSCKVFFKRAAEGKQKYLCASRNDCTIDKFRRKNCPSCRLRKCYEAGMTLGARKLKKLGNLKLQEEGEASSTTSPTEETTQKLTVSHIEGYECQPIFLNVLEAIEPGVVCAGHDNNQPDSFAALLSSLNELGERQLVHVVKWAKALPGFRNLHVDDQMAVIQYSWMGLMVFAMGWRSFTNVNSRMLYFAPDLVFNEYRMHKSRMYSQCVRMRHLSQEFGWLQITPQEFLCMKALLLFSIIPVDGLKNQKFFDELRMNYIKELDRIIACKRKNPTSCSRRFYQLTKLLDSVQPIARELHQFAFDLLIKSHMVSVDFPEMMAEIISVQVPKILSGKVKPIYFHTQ
Briefly: AR degradation in LNCaP cells by ICW method. Particulars: 24 hours. The class given is cell-based. The protocol: Experimental purpose: To test the degradation effect of compounds on androgen receptor AR in LNCaP cells by ICW method.
Day 1 • 1. The cell culture medium, 0.025% trypsin, and phosphate buffered saline were preheated in a 37° C. water bath. • 2. Cells digested by trypsin were centrifuged at 1000 rpm for 5 minutes. The supernatant was discarded, and then the cells were resuspended in fresh culture medium. • 3. The cells were inoculated in a COL-Coated CellCarrier-384 plate at a density of 4 k/[…]/well. • 4. The 384 cell plate inoculated with cells was placed in an ultra-clean bench for 10 minutes. • 5. The cell plate was cultured overnight in a CO2 cell incubator.
Day 2 • 1. The compound at a concentration of 10 mM was diluted to 3 mM (3 μL+7 μL of dimethyl sulfoxide) before serial dilution. • 2. The compound was serially diluted 3-fold (4 μL+8 μL) in an Echo plate using Bravo. • 3. ZPE and HPE control wells were setup, and the ZPE control wells were dimethyl sulfoxide. • 4. The Echo plate was centrifuged at 1000 rpm for 1 minute, and then the diluted compound was transferred from the Echo plate to an intermediate plate using Echo with 200 nL/well. • 5. To the intermediate plate was added the cell culture medium using Multidrop combi with […]. • 6. The intermediate plate was shaken on a horizontal shaker for 1 minute to mix the compound well with the culture medium. • 7. The compound was transferred from the intermediate dilution plate to the cell plate using Bravo with 4 μL/well. • 8. The cell plate was shaken on the horizontal shaker for 1 minute, and centrifuged at 800 rpm for 30 seconds. • 9. The cell plate was returned to the CO2 incubator, and cultured for another 24 hours.
Day 3 • 1. 4% paraformaldehyde was removed from the refrigerator and brought to room temperature. • 2. The cell plate was removed from the incubator. • 3. To the cell plate was directly added 4% paraformaldehyde with 40 μL/well. • 4. The plate was incubated at room temperature for 20 minutes. • 5. The culture medium was manually shaken off from the cell plate, inverted in a centrifuge, and centrifuged at 800 rpm for 7 seconds to fully remove the residual culture medium. • 6. To the cell plate was added 4% paraformaldehyde with 25 μL/well. • 7. The plate was incubated at room temperature for 30 minutes. • 8. The paraformaldehyde solution was manually shaken off from the cell plate, inverted in the centrifuge, and centrifuged at 800 rpm for 7 seconds. • 9. 0.1% Trition was added with 25 μL/well. • 10. The plate was incubated at room temperature for 10 minutes. • 11. The 0.1% Trition solution was manually shaken off from the cell plate, inverted in the centrifuge, and centrifuged at 800 rpm for 7 seconds. • 12. Intercept® (PBS) blocking buffer was added with 25 μL/well. • 13. The plate was incubated at room temperature for 1 hour. • 14. The Intercept® (PBS) blocking buffer solution was manually shaken off from the cell plate, inverted in the centrifuge, and centrifuged at 800 rpm for 7 seconds. • 15. Primary antibody solution was added with 20 μL/well. The cell plate was placed in the centrifuge, and centrifuged at 800 rpm for 7 seconds. • 16. The cell plate was sealed, and then incubated overnight at 4° C.
Day 4 • 1. The primary antibody solution was manually shaken off from the cell plate, inverted in the centrifuge, and centrifuged at 800 rpm for 7 seconds. • 2. The plate was washed three times with 110 μL of PBS. • 3. The cell plate was inverted in the centrifuge, and centrifuged at 800 rpm for 7 seconds. • 4. Secondary antibody and DAPI solution was added with 20 μL/well. The cell plate was placed in the centrifuge, and centrifuged at 800 rpm for 7 seconds. • 5. The plate was incubated at room temperature for 1 hour. • 6. The secondary antibody and DAPI solution was manually shaken off from the cell plate, inverted in the centrifuge, and centrifuged at 800 rpm for 7 seconds. • 7. […]

Each structure is given as a SMILES string. Where a name gives a salt, the structure may show the parent alone.

Broadly, the DC50 is the concentration giving 50% degradation. The low end stands for a more potent degrader, the high end for a less potent degrader. As a reminder, the Dmax is the greatest extent of degradation seen. Take `CC1(C)C(=O)N(c2ccc(C#N)c(C(F)(F)F)c2)C(=S)N1c1ccc(OCCN2CCN(CC(=O)Nc3ccc4c(C5CCC(=O)NC5=O)coc4c3)CC2)c(F)c1` (stereo not shown) [WX002]: the DC50 is 8.9 nM and the Dmax came to 72%.

For the compound `N#Cc1ccc(O[C@H]2CC[C@H](NC(=O)c3ccc(N4CCC(CN5CCN(c6cccc7c6ccc6occ(C8CCC(=O)NC8=O)c67)CC5)CC4)nn3)CC2)cc1Cl` (stereo partly shown) [Hydrochloride of WX015], the 50% degradation concentration (DC50) came to 13.7 nM and the Dmax was 102%.
